Test results reported in ChEMBL document CHEMBL1201862, “PubChem BioAssay data set” (2004).
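A five-concentration, 48-hour dose response in 96-well plates underlies each endpoint, interpolated linearly between surrounding concentrations. At the GI50, growth is halved.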 Activity calls are given as the source filed them. No stated cut-off is given here; in the data, active = GI50 up to about 1.1 µM and inactive = higher.

Legend:
Assay in all cases: DTP human tumour cell line panel, 48 h
[1] = test system: ACHN
[2] = test system: COLO 205
[3] = test system: M14
[4] = test system: Malme-3M
[5] = test system: NCI-H23
[6] = test system: NCI-H460
[7] = test system: OVCAR-3
[8] = test system: OVCAR-8
[9] = test system: SN12C
[10] = test system: TK-10
[11] = test system: UACC-257
[12] = test system: UACC-62
[13] = test system: BT-549
[14] = test system: DU-145
[15] = test system: Hs-578T
[16] = test system: MCF7
[17] = test system: MDA-MB-231
[18] = test system: NCI/ADR-RES
[19] = test system: PC-3

Measured: GI50

COC(=O)CCC(=O)C(CC(=O)OC)C(=O)CCC(=O)NCCc1ccccc1 (configuration not stated)
inactive: [1] > 100 µM | [2] > 100 µM | [3] > 100 µM | [4] > 100 µM | [5] > 100 µM | [6] > 100 µM | [7] > 100 µM | [8] > 100 µM | [9] > 100 µM | [10] > 100 µM | [11] > 100 µM | [12] > 100 µM

NC(=O)Cc1ncn(-c2ccccc2)n1
inactive: [1] > 100 µM | [13] > 100 µM | [2] > 100 µM | [14] > 100 µM | [15] > 100 µM | [3] > 100 µM | [16] > 100 µM | [17] > 100 µM | [4] > 100 µM | [5] > 100 µM | [18] > 100 µM | [7] > 100 µM | [8] > 100 µM | [9] > 100 µM | [10] > 100 µM | [11] > 100 µM | [12] > 100 µM

Cc1ccc(N(C(=O)Nc2ccccc2)C2=NCC(C)S2)cc1C (configuration not stated)
inactive: [1] 28.7 µM | [2] 19.4 µM | [14] 31.4 µM | [15] 23.2 µM | [3] 13.4 µM | [16] 12.8 µM | [17] 18.7 µM | [4] 20.3 µM | [5] 15.7 µM | [6] 18 µM | [18] 14.8 µM | [7] 17.3 µM | [8] 29.2 µM | [19] 24.4 µM | [9] 13.7 µM | [10] 21 µM | [11] > 10 µM

O/N=C1\SC(=N\O)/C(=N/O)S\C1=N/O
inactive: [1] > 100 µM | [13] > 100 µM | [2] > 100 µM | [14] > 100 µM | [3] > 100 µM | [16] > 100 µM | [17] > 100 µM | [4] > 100 µM | [5] 76.6 µM | [6] > 100 µM | [18] > 100 µM | [7] > 100 µM | [8] > 100 µM | [19] > 100 µM | [9] > 100 µM | [11] > 100 µM | [12] 94.8 µM

C(=N\CCCN1CCN(CCC/N=C/c2cccc3ccccc23)CC1)/c1cccc2ccccc12
inactive: [1] > 100 µM | [13] 22.8 µM | [2] > 100 µM | [15] 18.8 µM | [3] 8.99 µM | [17] > 100 µM | [4] > 100 µM | [5] 90.8 µM | [6] > 100 µM | [18] 38.8 µM | [7] > 100 µM | [8] > 100 µM | [19] > 100 µM | [9] > 100 µM | [10] 72.1 µM | [11] > 100 µM | [12] 84.7 µM

OC12c3ccccc3C1(N1CCOCC1)CCCCC21OCCCO1 (configuration not stated)
inactive: [1] > 100 µM | [2] > 100 µM | [3] > 100 µM | [4] > 100 µM | [5] > 100 µM | [6] > 100 µM | [7] > 100 µM | [8] > 100 µM | [9] > 100 µM | [10] > 100 µM | [11] > 100 µM | [12] > 100 µM

N=C(N)n1nc2c(c1O)CCCC2
inactive: [1] > 100 µM | [2] > 100 µM | [14] > 100 µM | [15] > 100 µM | [3] > 100 µM | [16] > 100 µM | [17] > 100 µM | [4] > 100 µM | [5] > 100 µM | [6] > 100 µM | [18] > 100 µM | [7] > 100 µM | [8] > 100 µM | [19] > 100 µM | [9] > 100 µM | [10] > 100 µM | [11] > 100 µM | [12] > 100 µM

O=P1(c2ccccc2)CCCCC1
inactive: [1] > 100 µM | [2] > 100 µM | [3] > 100 µM | [4] > 100 µM | [5] > 100 µM | [6] > 100 µM | [7] > 100 µM | [8] > 100 µM | [9] > 100 µM | [10] > 100 µM | [11] > 100 µM | [12] > 100 µM

Cc1nc(O)c2ncn(CCO)c2n1
inactive: [1] > 100 µM | [2] > 100 µM | [14] > 100 µM | [15] > 100 µM | [3] > 100 µM | [16] > 100 µM | [17] > 100 µM | [4] > 100 µM | [5] > 100 µM | [6] > 100 µM | [18] > 100 µM | [7] > 100 µM | [8] > 100 µM | [19] > 100 µM | [9] > 100 µM | [10] > 100 µM | [11] > 100 µM | [12] > 100 µM

COc1ccc(NC(=O)C2C(=O)N(c3ccc(OC)cc3)C(=O)/C2=N\NC(N)=O)cc1 (configuration not stated)
inactive: [1] 27.6 µM | [2] > 100 µM | [3] 92.5 µM | [4] 25.7 µM | [5] 56.1 µM | [6] 38.9 µM | [7] 34 µM | [8] 19.4 µM | [9] 98.9 µM | [10] 23.9 µM | [11] 46.9 µM | [12] 16.6 µM

c1ccc(C2=C(c3ccccc3)P(c3ccccc3)C2)cc1 (configuration not stated)
inactive: [1] > 100 µM | [2] > 100 µM | [14] > 100 µM | [15] 40.5 µM | [3] > 100 µM | [16] > 100 µM | [17] > 100 µM | [4] 67.1 µM | [6] 92.3 µM | [18] 40.1 µM | [7] 78.7 µM | [8] 89.7 µM | [19] 48.1 µM | [9] > 100 µM | [10] > 100 µM | [11] > 100 µM

CCOc1ccccc1N1CSc2nnc(-c3ccccc3)n2C1
inactive: [1] > 100 µM | [13] > 100 µM | [2] 68.1 µM | [14] > 100 µM | [3] > 100 µM | [16] 97.3 µM | [17] > 100 µM | [4] > 100 µM | [5] > 100 µM | [6] > 100 µM | [18] > 100 µM | [7] > 100 µM | [8] > 100 µM | [19] > 100 µM | [9] > 100 µM | [10] > 100 µM | [11] > 100 µM | [12] > 100 µM

CC(C)n1c(=O)[nH]n(-c2ccccc2)c1=O
inactive: [1] > 100 µM | [2] > 100 µM | [14] > 100 µM | [15] > 100 µM | [3] > 100 µM | [16] > 100 µM | [17] > 100 µM | [4] > 100 µM | [5] > 100 µM | [6] > 100 µM | [18] > 100 µM | [7] > 100 µM | [8] > 100 µM | [19] > 100 µM | [9] > 100 µM | [10] > 100 µM | [11] > 100 µM | [12] > 100 µM

CC(=O)Nc1ccccc1NC1CC(C)N(c2ccccc2)N1C(C)=O (configuration not stated)
inactive: [2] > 10 µM | [14] > 10 µM | [3] > 10 µM | [16] > 10 µM | [17] > 10 µM | [4] > 10 µM | [5] > 10 µM | [8] > 10 µM | [19] > 10 µM | [9] > 10 µM | [10] > 10 µM | [11] > 10 µM | [12] > 10 µM

COc1cc(C2c3cccc4cccc(c34)C3CCC(=O)N32)cc(O)c1O (configuration not stated)
inactive: [1] > 50 µM | [13] > 50 µM | [2] > 50 µM | [14] > 50 µM | [3] 43.7 µM | [16] 20.6 µM | [5] 27.1 µM | [6] 36.5 µM | [18] 37.7 µM | [7] 18.1 µM | [8] 27.9 µM | [19] 34.4 µM | [9] 41 µM | [11] 24.7 µM | [12] 25.6 µM

CCCCCCNCCc1c[nH]cn1
inactive: [1] > 100 µM | [2] > 100 µM | [14] > 100 µM | [15] > 100 µM | [3] > 100 µM | [16] > 100 µM | [17] > 100 µM | [4] > 100 µM | [5] > 100 µM | [6] > 100 µM | [18] > 100 µM | [7] > 100 µM | [8] > 100 µM | [19] > 100 µM | [9] > 100 µM | [11] > 100 µM | [12] > 100 µM

COc1c(CC=C(C)C)c(O)c(C(CC(C)C)c2c(O)c(C(C)=O)c(O)c3c2OC(C(C)(C)O)C3)c(O)c1C(C)=O (configuration not stated) [ACROFOLIONE A]
inactive: [1] 4.31 µM | [13] 3.27 µM | [2] 4.46 µM | [14] 4.71 µM | [15] 7.74 µM | [3] 5.56 µM | [16] 4.26 µM | [4] 3.81 µM | [5] 3.75 µM | [6] 4.13 µM | [18] 3.82 µM | [7] 5.42 µM | [8] 4.12 µM | [9] 3.84 µM | [11] 3.2 µM | [12] 5.26 µM

O=C1CSC(=S)N1 [RHODANINE]
inactive: [1] > 100 µM | [2] > 100 µM | [14] > 100 µM | [15] > 100 µM | [3] > 100 µM | [16] > 100 µM | [17] > 100 µM | [4] > 100 µM | [5] > 100 µM | [6] > 100 µM | [18] > 100 µM | [7] > 100 µM | [8] > 100 µM | [19] > 100 µM | [9] > 100 µM | [10] > 100 µM | [11] > 100 µM
